ChEMBL document CHEMBL4130368, “Thienopyrimidine derivatives exert their anticancer efficacy via apoptosis induction, oxidative stress and mitotic catastrophe” (Eur J Med Chem, 2017)
pIC50: −log10 of the molar value. Calls of active or inactive are those of the source. No cut-off for these calls is given here.

Experiments:
HCT-116 [1] = experiment: Induction of apoptosis in human HCT116 cells assessed as late apoptotic cells at 2 uM measured after overnight incubation by mitotracker red/alexa fluor-488 Annexin V staining-based flow cytometry (reference value: 0%); assay type: functional
2008 [2] = experiment: Induction of morphological changes in human OV2008 cells at 0.1 to 3 uM after 68 hrs by microscopic method; assay type: functional, cell-based
2008 [3] = experiment: Induction of cellular oxidative stress in human OV2008 cells assessed as increase in ROS levels at 0.5 to 4 uM after 48 hrs by DCFDA dye-based fluorescence microscopic method; assay type: functional, cell-based
2008 [4] = experiment: Induction of apoptosis in human OV2008 cells assessed as early apoptotic cells at 2 uM measured after overnight incubation by mitotracker red/alexa fluor-488 Annexin V staining-based flow cytometry (reference value: 12.9%); assay type: functional
2008 [5] = experiment: Induction of apoptosis in human OV2008 cells assessed as cell shrinkage at 0.5 to 2 uM measured after overnight incubation by DAPI-staining based microscopy; assay type: functional
A2780 [6] = experiment: Induction of apoptosis in human A2780 cells assessed as early apoptotic cells at 1 uM measured after overnight incubation by mitotracker red/alexa fluor-488 Annexin V staining-based flow cytometry (reference value: 11.9%); assay type: functional
2008 [7] = experiment: Cell cycle arrest in human OV2008 cells assessed as accumulation at G2 phase at 2 uM measured after overnight incubation by propidium iodide staining-based flow cytometry (reference value: 26.9%); assay type: functional
A2780 [8] = experiment: Cell cycle arrest in human A2780 cells assessed as accumulation at S phase at 1 uM measured after overnight incubation by propidium iodide staining-based flow cytometry (reference value: 15.2%); assay type: functional
HCT-116 [9] = experiment: Antiproliferative activity against bax deficient human HCT116 cells assessed after 72 hrs by MTT assay; assay type: functional, cell-based; settings: HCT-116, 72 h
HCT-116 [10] = experiment: Induction of apoptosis in human HCT116 cells assessed as condensation of nuclei at 0.5 to 2 uM measured after overnight incubation by DAPI-staining based microscopy; assay type: functional, cell-based
A2780 [11] = experiment: Induction of mitotic catastrophe in human A2780 cells assessed as multinuclear changes at 0.5 to 2 uM measured after overnight incubation by DAPI-staining based microscopy; assay type: functional, cell-based
HCT-116 [12] = experiment: Cell cycle arrest in human HCT116 cells assessed as accumulation at […] at 2 uM measured after overnight incubation by propidium iodide staining-based flow cytometry (reference value: 9.70%); assay type: functional
A2780 [13] = experiment: Inhibition of colony formation in human A2780 cells at 1 to 2 uM after 24 hrs by crystal violet dye based assay; assay type: functional, cell-based
2008 [14] = experiment: Cell cycle arrest in human OV2008 cells assessed as accumulation at S phase at 2 uM measured after overnight incubation by propidium iodide staining-based flow cytometry (reference value: 10.8%); assay type: functional
2008 [15] = experiment: Induction of apoptosis in human OV2008 cells assessed as late apoptotic cells at 1 uM measured after overnight incubation by mitotracker red/alexa fluor-488 Annexin V staining-based flow cytometry (reference value: 0.255%); assay type: functional
2008 [16] = experiment: Induction of apoptosis in human OV2008 cells assessed as early apoptotic cells at 1 uM measured after overnight incubation by mitotracker red/alexa fluor-488 Annexin V staining-based flow cytometry (reference value: 12.9%); assay type: functional
2008 [17] = experiment: Induction of apoptosis in human OV2008 cells assessed as necrotic cells at 2 uM measured after overnight incubation by mitotracker red/alexa fluor-488 Annexin V staining-based flow cytometry (reference value: 6.31%); assay type: functional
HCT-116 [18] = experiment: Induction of morphological changes in human HCT116 cells at 0.1 to 3 uM after 68 hrs by microscopic method; assay type: functional, cell-based
HCT-116 [19] = experiment: Induction of mitotic catastrophe in human HCT116 cells assessed as formation of large with flattened cells at 0.5 to 2 uM measured after overnight incubation by DAPI-staining based microscopy; assay type: functional, cell-based
HCT-15 = experiment: Antiproliferative activity against human HCT15 cells after 72 hrs by MTT assay; assay type: functional, cell-based; settings: HCT-15, 72 h
2008 [20] = experiment: Induction of apoptosis in human OV2008 cells assessed as viable cells at 2 uM measured after overnight incubation by mitotracker red/alexa fluor-488 Annexin V staining-based flow cytometry (reference value: 80.5%); assay type: functional; settings: read-out: Activity
HCT-116 [21] = experiment: Cell cycle arrest in human HCT116 cells assessed as accumulation at G1 phase at 2 uM measured after overnight incubation by propidium iodide staining-based flow cytometry (reference value: 63.5%); assay type: functional
HCT-116 [22] = experiment: Cell cycle arrest in human HCT116 cells assessed as accumulation at subG1 phase at 2 uM measured after overnight incubation by propidium iodide staining-based flow cytometry (reference value: 0.154%); assay type: functional
A2780 [23] = experiment: Induction of apoptosis in human A2780 cells assessed as necrotic cells at 1 uM measured after overnight incubation by mitotracker red/alexa fluor-488 Annexin V staining-based flow cytometry (reference value: 9.94%); assay type: functional
A2780 [24] = experiment: Induction of apoptosis in human A2780 cells assessed as viable cells at 2 uM measured after overnight incubation by mitotracker red/alexa fluor-488 Annexin V staining-based flow cytometry (reference value: 78.1%); assay type: functional; settings: read-out: Activity
HCT-116 [25] = experiment: Induction of mitotic catastrophe in human HCT116 cells assessed as formation of de-condensed multiple micronuclei at 0.5 to 2 uM measured after overnight incubation by DAPI-staining based microscopy; assay type: functional, cell-based
A2780 [26] = experiment: Cell cycle arrest in human A2780 cells assessed as accumulation at G1 phase at 1 uM measured after overnight incubation by propidium iodide staining-based flow cytometry (reference value: 51.1%); assay type: functional
[27] = Selectivity index, ratio of IC50 for CHO cells to IC50 for human HCT15 cells; assay type: toxicity; settings: Chinese hamster (CHO cells), CHO cells versus HCT15 cells, read-out: Ratio IC50
HCT-116 [28] = experiment: Cell cycle arrest in human HCT116 cells assessed as accumulation at G2 phase at 2 uM measured after overnight incubation by propidium iodide staining-based flow cytometry (reference value: 24%); assay type: functional
2008 [29] = experiment: Cell cycle arrest in human OV2008 cells assessed as accumulation at G2 phase at 1 uM measured after overnight incubation by propidium iodide staining-based flow cytometry (reference value: 26.9%); assay type: functional
2008 [30] = experiment: Cell cycle arrest in human OV2008 cells assessed as accumulation at S phase at 1 uM measured after overnight incubation by propidium iodide staining-based flow cytometry (reference value: 10.8%); assay type: functional
2008 [31] = experiment: Inhibition of colony formation in human OV2008 cells at 1 to 2 uM after 24 hrs by crystal violet dye based assay; assay type: functional, cell-based
A2780 [32] = experiment: Cell cycle arrest in human A2780 cells assessed as accumulation at subG1 phase at 2 uM measured after overnight incubation by propidium iodide staining-based flow cytometry (reference value: 8.88%); assay type: functional
HCT-116 [33] = experiment: Inhibition of colony formation in human HCT116 cells at 1 to 2 uM after 24 hrs by crystal violet dye based assay; assay type: functional, cell-based
HCT-116 [34] = experiment: Antiproliferative activity against dko deficient human HCT116 cells after 72 hrs by MTT assay; assay type: functional, cell-based; settings: HCT-116, 72 h
2008 [35] = experiment: Induction of apoptosis in human OV2008 cells assessed as late apoptotic cells at 2 uM measured after overnight incubation by mitotracker red/alexa fluor-488 Annexin V staining-based flow cytometry (reference value: 0.255%); assay type: functional

In the case of COc1ccc(-c2nc(O)c3c4c(sc3n2)CCCC4)cc1, the Activity (HCT-116 [1]) was 0%, the Activity 2008 [2] was “Active” and the Activity 2008 [3] was “Active”. For the same molecule, the Activity 2008 [4] was 22.2%, the Activity 2008 [5] was “Active” and the Activity (A2780 [6]) was 25.8%. It also gave an Activity 2008 [7] of 41.1%, an Activity (A2780 [8]) of 10.4% and a pIC50 (HCT-116 [9]) of 5.92. The Activity (HCT-116 [10]) was “Active”, the Activity (A2780 [11]) was “Active” and the Activity (HCT-116 [12]) was 10.6%. The inhibition (A2780 [13]) was “Dose-dependent effect”, the Activity 2008 [14] was 31.8% and the Activity 2008 [15] was 0.245%. The Activity 2008 [16] was 20.3%, the Activity 2008 [17] was 3.79% and the Activity (HCT-116 [18]) was “Active”. For the same molecule, the Activity (HCT-116 [19]) was “Active”, the pIC50 (HCT-15) was 6.15 and the viability at 2 µM 2008 [20] was 73.9%. The Activity (HCT-116 [21]) was 29.5%, the Activity (HCT-116 [22]) was 0.097% and the Activity (A2780 [23]) was 0.421%. For the same molecule, the viability at 2 µM (A2780 [24]) was 42.9%, the Activity (HCT-116 [25]) was “Active” and the Activity (A2780 [26]) was 20.2%. For the same molecule, the selectivity ratio [27] was 17 to 28, the Activity (HCT-116 [28]) was 54.8% and the Activity 2008 [29] was 44.6%. For the same molecule, the Activity 2008 [30] was 20.4%, the inhibition 2008 [31] was “Dose-dependent effect” and the Activity (A2780 [32]) was 7.54%. The inhibition (HCT-116 [33]) was “Dose-dependent effect”, the pIC50 (HCT-116 [34]) was 5.85 and the Activity 2008 [35] was 0.057%.
